Experimental data from the supplement of paper PMC10307832.

What was measured:
Assay in all cases: relative viability (nuclei count vs DMSO), 5 days (fraction); higher = more cells survive
[1] = compound: CNC(=O)c1cc(Oc2ccc(NC(=O)Nc3ccc(Cl)c(C(F)(F)F)c3)cc2)ccn1 [Sorafenib] + Nc1nc2[nH]cc(CCc3ccc(C(=O)N[C@@H](CCC(=O)O)C(=O)O)cc3)c2c(=O)[nH]1 [Pemetrexed] (partner 0.2 µM)
Method in brief: (§1)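 Relative viability equals treated-well nuclei counts divided by vehicle-well nuclei counts. Counts came from 4× images of lung cancer cell lines grown in 1536-well plates for 5 days after pin-tool dosing on the day after seeding. Dosing used one drug alone or a fixed anchor-drug dose plus five library-drug doses (not always all listed) in √10 steps, and values are medians of duplicate plates.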

[2] = compound: CNC(=O)c1cc(Oc2ccc(NC(=O)Nc3ccc(Cl)c(C(F)(F)F)c3)cc2)ccn1 [Sorafenib] + Nc1ncn([C@H]2C[C@H](O)[C@@H](CO)O2)c(=O)n1 [Decitabine] (partner 2 µM)
Method in brief: as §1

[3] = compound: CNC(=O)c1cc(Oc2ccc(NC(=O)Nc3ccc(Cl)c(C(F)(F)F)c3)cc2)ccn1 [Sorafenib] + CC1(C)CCC(c2ccc(Cl)cc2)=C(CN2CCN(c3ccc(C(=O)NS(=O)(=O)c4ccc(N[C@H](CCN5CCOCC5)CSc5ccccc5)c(S(=O)(=O)C(F)(F)F)c4)cc3)CC2)C1 [Navitoclax] (partner 0.5 µM)
Method in brief: as §1

[4] = compound: CNC(=O)c1cc(Oc2ccc(NC(=O)Nc3ccc(Cl)c(C(F)(F)F)c3)cc2)ccn1 [Sorafenib] + O=C(CCCCCCC(=O)Nc1ccccc1)NO [Vorinostat] (partner 1 µM)
Method in brief: as §1

[5] = compound: CNC(=O)c1cc(Oc2ccc(NC(=O)Nc3ccc(Cl)c(C(F)(F)F)c3)cc2)ccn1 [Sorafenib] + Cc1cc(Nc2cc(N3CCN(C)CC3)nc(Sc3ccc(NC(=O)C4CC4)cc3)n2)n[nH]1 [Tozasertib] (partner 0.1 µM)
Method in brief: as §1

Row | Cell Line | relative viability ([1]; first compound 0.08 µM) | relative viability ([1]; first compound 0.253 µM) | relative viability ([1]; first compound 2.53 µM) | relative viability ([1]; first compound 8 µM) | relative viability ([2]; first compound 0.08 µM) | relative viability ([2]; first compound 0.253 µM) | relative viability ([2]; first compound 2.53 µM) | relative viability ([2]; first compound 8 µM) | relative viability ([3]; first compound 0.08 µM) | relative viability ([3]; first compound 0.253 µM) | relative viability ([3]; first compound 2.53 µM) | relative viability ([4]; first compound 0.253 µM) | relative viability ([4]; first compound 2.53 µM) | relative viability ([4]; first compound 8 µM) | relative viability ([5]; first compound 0.08 µM) | relative viability ([5]; first compound 0.253 µM) | relative viability ([5]; first compound 2.53 µM) | relative viability ([5]; first compound 8 µM) | relative viability ([3]; first compound 8 µM) | relative viability ([4]; first compound 0.08 µM)
1 | NCI-H838 | 0.277 | 0.244 | 0.252 | 0.16 | 0.507 | 0.454 | 0.429 | 0.373 | 1.23 | 1.26 | 1.29 | 0.798 | 0.882 | 0.503 | 0.278 | 0.261 | 0.284 | 0.197 |  | 
2 | NCI-H596 | 0.495 | 0.47 | 0.563 | 0.52 | 0.987 | 1.01 | 1.16 | 1.05 | 0.892 | 1.13 | 1.02 | 0.547 | 0.929 | 0.717 | 1.01 | 0.907 | 0.871 | 0.406 | 1.02 | 0.748
3 | HOP-62 | 0.324 | 0.303 | 0.193 | 0.135 | 0.253 | 0.22 | 0.186 | 0.198 | 1.14 | 0.758 | 0.761 | 0.363 | 0.368 | 0.276 | 0.431 | 0.331 | 0.338 | 0.155 | 0.814 | 0.736
4 | NCI-H2126 | 0.763 | 0.672 | 0.681 | 0.706 | 0.631 | 0.524 | 0.562 | 0.643 | 0.892 | 0.782 | 0.888 | 0.747 | 0.828 | 0.799 | 0.93 | 0.842 | 0.866 |  | 0.867 | 0.88
5 | NCI-H2023 | 0.267 | 0.252 | 0.226 | 0.121 | 0.235 | 0.232 | 0.22 | 0.189 | 1.02 | 0.984 | 1.01 | 0.571 | 0.599 | 0.339 | 0.282 | 0.278 | 0.229 | 0.142 | 0.978 | 0.954
6 | EKVX | 0.511 | 0.365 | 0.375 | 0.389 | 0.339 | 0.362 | 0.378 | 0.305 | 1.13 | 0.882 | 0.884 | 0.723 | 0.832 | 0.803 | 0.382 | 0.419 | 0.467 | 0.212 | 0.963 | 0.718
7 | COR-L 105 | 1.26 | 1.31 | 1.32 | 0.852 | 0.733 | 0.617 | 0.695 | 0.573 | 0.792 | 0.821 | 0.89 | 0.696 | 0.946 | 0.551 | 0.405 | 0.435 | 0.322 | 0.411 | 0.865 | 1.01
8 | NCI-H322M | 0.728 | 0.618 | 0.739 | 0.763 | 0.69 | 0.788 | 0.823 | 0.739 | 1.19 | 1.25 | 1.34 | 0.886 | 1.02 | 1.17 | 0.512 | 0.394 | 0.527 | 0.475 | 1.16 | 1.02
9 | NCI-H1793 | 1.24 |  | 1.11 | 0.529 | 0.531 | 0.535 | 0.464 |  | 0.569 | 0.476 | 0.932 | 0.739 | 1.05 | 0.578 | 0.467 | 0.374 | 0.242 | 0.182 | 0.39 | 0.783
10 | PC-14 | 0.133 | 0.137 | 0.123 | 0.102 | 0.22 | 0.177 | 0.225 | 0.156 | 1.02 | 0.949 | 0.888 | 0.721 | 0.641 | 0.481 | 0.588 | 0.555 | 0.593 | 0.577 | 0.955 | 0.833
11 | NCI-H358 | 0.168 | 0.146 | 0.145 | 0.144 | 0.224 | 0.222 | 0.217 | 0.121 |  |  |  | 0.712 | 0.594 | 0.208 | 0.112 | 0.0906 | 0.0966 | 0.073 |  | 0.666
12 | LXF-289 | 0.886 | 0.782 | 0.932 | 0.787 | 0.379 | 0.38 |  | 0.329 | 0.971 | 0.959 | 0.999 | 0.757 | 0.848 | 0.681 | 0.178 | 0.184 | 0.177 | 0.174 | 0.943 | 0.758
13 | HCC-366 | 0.158 | 0.124 | 0.127 | 0.174 | 0.337 | 0.295 | 0.34 | 0.279 | 1.11 | 0.944 | 1.06 | 0.343 | 0.256 | 0.22 | 0.109 | 0.083 | 0.054 | 0.0297 | 1.01 | 0.315
14 | HARA | 0.246 | 0.237 | 0.257 | 0.233 | 0.633 | 0.465 | 0.592 | 0.461 | 1.17 | 1.08 |  | 0.6 | 0.512 | 0.569 | 0.0919 | 0.137 | 0.146 | 0.1 | 1.13 | 0.517
15 | NCI-H2087 | 0.694 | 0.622 | 0.61 | 0.239 | 0.304 | 0.231 | 0.172 | 0.107 | 1.05 | 0.772 | 0.892 | 0.545 | 0.474 | 0.209 | 0.26 | 0.241 | 0.212 | 0.152 | 0.29 | 0.615
16 | NCI-H520 | 0.731 | 0.781 | 0.58 | 0.199 |  | 0.421 | 0.446 | 0.299 | 1.21 | 1.08 |  | 0.597 | 0.606 | 0.27 | 0.517 | 0.436 | 0.432 | 0.331 | 0.358 | 0.673
